Square brackets hold non-standard residues; d marks the D form. Peptide text beside a SMILES is read from it. NMeF = CN[C@@H](Cc1ccccc1)C(=O)O; NMeT = CN[C@H](C(=O)O)[C@@H](C)O; NMeV = CN[C@H](C(=O)O)C(C)C; NMeS = CN[C@@H](CO)C(=O)O; NMeA = CN[C@@H](C)C(=O)O; Sar = CNCC(=O)O
Tests used:
[1] = target: Human immunodeficiency virus type 1 integrase (Human immunodeficiency virus 1) (UniProt Q7ZJM1); experiment: Binding affinity to HIV-1 integrase measured after overnight incubation by chemiluminescence analysis relative to IN 118-128; design: concentration or dose not given beside the values
[2] = system: Human immunodeficiency virus 1; experiment: Binding affinity to HLT-tagged HIV-1 Rev measured after overnight incubation by chemiluminescence analysis relative to IN 118-128; design: concentration or dose not given beside the values

Sequence of Human immunodeficiency virus type 1 integrase (Human immunodeficiency virus 1) (Q7ZJM1 as listed by the source): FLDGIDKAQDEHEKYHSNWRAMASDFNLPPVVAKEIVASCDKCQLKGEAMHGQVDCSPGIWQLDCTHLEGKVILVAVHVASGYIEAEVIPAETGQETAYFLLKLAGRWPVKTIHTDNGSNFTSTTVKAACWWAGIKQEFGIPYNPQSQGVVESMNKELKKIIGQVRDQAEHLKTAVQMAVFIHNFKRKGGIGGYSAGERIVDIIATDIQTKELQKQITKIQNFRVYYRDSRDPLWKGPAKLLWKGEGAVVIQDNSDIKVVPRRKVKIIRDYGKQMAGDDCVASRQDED

SMILES | Activity [1] | Activity [2]
CC(C)[C@H](NC(=O)[C@@H](NC(=O)[C@@H](NC(=O)[C@H](CO)NC(=O)[C@@H](NC(=O)[C@@H](N)Cc1ccccc1)[C@@H](C)O)[C@@H](C)O)[C@@H](C)O)C(=O)N[C@@H](CCCCN)C(=O)N[C@@H](C)C(=O)O (H-FTSTTVKA-OH) | 236% | 280%
CC(C)[C@H](NC(=O)[C@@H](NC(=O)[C@@H](NC(=O)[C@H](CO)NC(=O)[C@@H](NC(=O)[C@H](Cc1ccccc1)NC(=O)[C@H](CC(N)=O)NC(=O)[C@H](CO)NC(=O)CN)[C@@H](C)O)[C@@H](C)O)[C@@H](C)O)C(=O)N[C@@H](C)C(=O)N[C@@H](C)C(=O)O (H-GSNFTSTTVAA-OH) | 85% | 0%
CC(C)[C@H](NC(=O)[C@@H](NC(=O)[C@@H](NC(=O)[C@H](CO)NC(=O)[C@H]([C@@H](C)O)N(C)C(=O)[C@H](Cc1ccccc1)NC(=O)[C@H](CC(N)=O)NC(=O)[C@H](CO)NC(=O)CN)[C@@H](C)O)[C@@H](C)O)C(=O)N[C@@H](CCCCN)C(=O)N[C@@H](C)C(=O)O (H-GSNF[NMeT]STTVKA-OH) | 165% | 200%
CC(C)[C@H](NC(=O)[C@@H](NC(=O)[C@@H](NC(=O)[C@H](CO)NC(=O)[C@@H](NC(=O)[C@@H](Cc1ccccc1)NC(=O)[C@H](CC(N)=O)NC(=O)[C@H](CO)NC(=O)CN)[C@@H](C)O)[C@@H](C)O)[C@@H](C)O)C(=O)N[C@@H](CCCCN)C(=O)N[C@@H](C)C(=O)O | 229% | 211%
CC(C)[C@H](NC(=O)[C@@H](NC(=O)[C@@H](NC(=O)[C@H](CO)NC(=O)[C@@H](NC(=O)[C@H](Cc1ccccc1)N(C)C(=O)[C@H](CC(N)=O)NC(=O)[C@H](CO)NC(=O)CN)[C@@H](C)O)[C@@H](C)O)[C@@H](C)O)C(=O)N[C@@H](CCCCN)C(=O)N[C@@H](C)C(=O)O (H-GSN[NMeF]TSTTVKA-OH) | 195% | 177%
CC(C)[C@H](NC(=O)[C@@H](NC(=O)[C@@H](NC(=O)[C@H](CO)NC(=O)[C@@H](NC(=O)[C@H](Cc1ccccc1)NC(=O)[C@H](CC(N)=O)NC(=O)[C@H](CO)NC(=O)CN)[C@@H](C)O)[C@@H](C)O)[C@@H](C)O)C(=O)N[C@H](CCCCN)C(=O)N[C@@H](C)C(=O)O | 109% | 53%
CC(C)[C@@H](C(=O)N[C@@H](CCCCN)C(=O)N[C@@H](C)C(=O)O)N(C)C(=O)[C@@H](NC(=O)[C@@H](NC(=O)[C@H](CO)NC(=O)[C@@H](NC(=O)[C@H](Cc1ccccc1)NC(=O)[C@H](CC(N)=O)NC(=O)[C@H](CO)NC(=O)CN)[C@@H](C)O)[C@@H](C)O)[C@@H](C)O (H-GSNFTSTT[NMeV]KA-OH) | 273% | 215%
CC(C)[C@H](NC(=O)[C@@H](NC(=O)[C@@H](NC(=O)[C@@H](CO)NC(=O)[C@@H](NC(=O)[C@H](Cc1ccccc1)NC(=O)[C@H](CC(N)=O)NC(=O)[C@H](CO)NC(=O)CN)[C@@H](C)O)[C@@H](C)O)[C@@H](C)O)C(=O)N[C@@H](CCCCN)C(=O)N[C@@H](C)C(=O)O | 92% | 124%
C[C@@H](O)[C@H](NC(=O)[C@H](CO)NC(=O)[C@@H](NC(=O)[C@H](Cc1ccccc1)NC(=O)[C@H](CC(N)=O)NC(=O)[C@H](CO)NC(=O)CN)[C@@H](C)O)C(=O)O (H-GSNFTST-OH) | 34% | 0%
C[C@H](NC(=O)[C@H](CCCCN)NC(=O)[C@H](C)NC(=O)[C@@H](NC(=O)[C@@H](NC(=O)[C@H](CO)NC(=O)[C@@H](NC(=O)[C@H](Cc1ccccc1)NC(=O)[C@H](CC(N)=O)NC(=O)[C@H](CO)NC(=O)CN)[C@@H](C)O)[C@@H](C)O)[C@@H](C)O)C(=O)O (H-GSNFTSTTAKA-OH) | 129% | 64%
CC(C)[C@H](NC(=O)[C@@H](NC(=O)[C@@H](NC(=O)[C@H](CO)NC(=O)[C@@H](NC(=O)[C@H](C)NC(=O)[C@H](CC(N)=O)NC(=O)[C@H](CO)NC(=O)CN)[C@@H](C)O)[C@@H](C)O)[C@@H](C)O)C(=O)N[C@@H](CCCCN)C(=O)N[C@@H](C)C(=O)O (H-GSNATSTTVKA-OH) | 133% | 31%
CC(C)[C@H](NC(=O)[C@@H](NC(=O)[C@@H](NC(=O)[C@H](CO)NC(=O)[C@@H](NC(=O)[C@H](Cc1ccccc1)NC(=O)[C@H](CC(N)=O)NC(=O)[C@H](CO)NC(=O)CN)[C@@H](C)O)[C@@H](C)O)[C@@H](C)O)C(=O)O (H-GSNFTSTTV-OH) | 27% | 0%
CC(C)[C@H](NC(=O)[C@@H](NC(=O)[C@H](C)NC(=O)[C@H](CO)NC(=O)[C@@H](NC(=O)[C@H](Cc1ccccc1)NC(=O)[C@H](CC(N)=O)NC(=O)[C@H](CO)NC(=O)CN)[C@@H](C)O)[C@@H](C)O)C(=O)N[C@@H](CCCCN)C(=O)N[C@@H](C)C(=O)O (H-GSNFTSATVKA-OH) | 231% | 107%
CC(C)[C@H](NC(=O)[C@@H](NC(=O)[C@@H](NC(=O)[C@H](CO)NC(=O)[C@@H](NC(=O)[C@H](Cc1ccccc1)NC(=O)[C@@H](CC(N)=O)NC(=O)[C@H](CO)NC(=O)CN)[C@@H](C)O)[C@@H](C)O)[C@@H](C)O)C(=O)N[C@@H](CCCCN)C(=O)N[C@@H](C)C(=O)O | 133% | 144%
CC(C)[C@H](NC(=O)[C@@H](NC(=O)[C@@H](NC(=O)[C@H](CO)NC(=O)[C@@H](NC(=O)[C@H](Cc1ccccc1)NC(=O)[C@H](C)NC(=O)[C@H](CO)NC(=O)CN)[C@@H](C)O)[C@@H](C)O)[C@@H](C)O)C(=O)N[C@@H](CCCCN)C(=O)N[C@@H](C)C(=O)O (H-GSAFTSTTVKA-OH) | 198% | 151%
CNCC(=O)N[C@@H](CO)C(=O)N[C@@H](CC(N)=O)C(=O)N[C@@H](Cc1ccccc1)C(=O)N[C@H](C(=O)N[C@@H](CO)C(=O)N[C@H](C(=O)N[C@H](C(=O)N[C@H](C(=O)N[C@@H](CCCCN)C(=O)N[C@@H](C)C(=O)O)C(C)C)[C@@H](C)O)[C@@H](C)O)[C@@H](C)O (H-[Sar]SNFTSTTVKA-OH) | 181% | 294%
CC(C)[C@H](NC(=O)[C@@H](NC(=O)[C@@H](NC(=O)[C@H](C)NC(=O)[C@@H](NC(=O)[C@H](Cc1ccccc1)NC(=O)[C@H](CC(N)=O)NC(=O)[C@H](CO)NC(=O)CN)[C@@H](C)O)[C@@H](C)O)[C@@H](C)O)C(=O)N[C@@H](CCCCN)C(=O)N[C@@H](C)C(=O)O (H-GSNFTATTVKA-OH) | 135% | 182%
CC(C)[C@H](NC(=O)[C@@H](NC(=O)[C@@H](NC(=O)[C@H](CO)NC(=O)[C@@H](N)[C@@H](C)O)[C@@H](C)O)[C@@H](C)O)C(=O)N[C@@H](CCCCN)C(=O)N[C@@H](C)C(=O)O (H-TSTTVKA-OH) | 135% | 111%
CC(C)[C@H](NC(=O)[C@@H](NC(=O)[C@@H](NC(=O)[C@H](CO)NC(=O)[C@@H](NC(=O)[C@H](Cc1ccccc1)NC(=O)[C@H](CC(N)=O)NC(=O)[C@H](CO)N(C)C(=O)CN)[C@@H](C)O)[C@@H](C)O)[C@@H](C)O)C(=O)N[C@@H](CCCCN)C(=O)N[C@@H](C)C(=O)O (H-G[NMeS]NFTSTTVKA-OH) | 182% | 293%
CC(C)[C@H](NC(=O)[C@@H](NC(=O)[C@H](NC(=O)[C@H](CO)NC(=O)[C@@H](NC(=O)[C@H](Cc1ccccc1)NC(=O)[C@H](CC(N)=O)NC(=O)[C@H](CO)NC(=O)CN)[C@@H](C)O)[C@@H](C)O)[C@@H](C)O)C(=O)N[C@@H](CCCCN)C(=O)N[C@@H](C)C(=O)O | 150% | 176%
CC(C)[C@H](NC(=O)[C@@H](NC(=O)[C@@H](NC(=O)[C@H](CO)NC(=O)[C@@H](NC(=O)[C@H](Cc1ccccc1)NC(=O)[C@H](CC(N)=O)NC(=O)[C@H](CO)NC(=O)CN)[C@@H](C)O)[C@@H](C)O)[C@@H](C)O)C(=O)N[C@@H](CCCCN)C(=O)N(C)[C@@H](C)C(=O)O (H-GSNFTSTTVK[NMeA]-OH) | 136% | 141%
CC(C)[C@H](NC(=O)[C@@H](NC(=O)[C@@H](NC(=O)[C@H](CO)NC(=O)[C@@H](NC(=O)[C@H](Cc1ccccc1)NC(=O)[C@@H](N)CC(N)=O)[C@@H](C)O)[C@@H](C)O)[C@@H](C)O)C(=O)N[C@@H](CCCCN)C(=O)N[C@@H](C)C(=O)O (H-NFTSTTVKA-OH) | 119% | 152%
CC(C)[C@H](NC(=O)[C@H](C)NC(=O)[C@@H](NC(=O)[C@H](CO)NC(=O)[C@@H](NC(=O)[C@H](Cc1ccccc1)NC(=O)[C@H](CC(N)=O)NC(=O)[C@H](CO)NC(=O)CN)[C@@H](C)O)[C@@H](C)O)C(=O)N[C@@H](CCCCN)C(=O)N[C@@H](C)C(=O)O (H-GSNFTSTAVKA-OH) | 182% | 124%
CC(C)[C@H](NC(=O)[C@H](NC(=O)[C@@H](NC(=O)[C@H](CO)NC(=O)[C@@H](NC(=O)[C@H](Cc1ccccc1)NC(=O)[C@H](CC(N)=O)NC(=O)[C@H](CO)NC(=O)CN)[C@@H](C)O)[C@@H](C)O)[C@@H](C)O)C(=O)N[C@@H](CCCCN)C(=O)N[C@@H](C)C(=O)O | 85% | 60%
CC(C)[C@H](NC(=O)[C@@H](NC(=O)[C@H]([C@@H](C)O)N(C)C(=O)[C@H](CO)NC(=O)[C@@H](NC(=O)[C@H](Cc1ccccc1)NC(=O)[C@H](CC(N)=O)NC(=O)[C@H](CO)NC(=O)CN)[C@@H](C)O)[C@@H](C)O)C(=O)N[C@@H](CCCCN)C(=O)N[C@@H](C)C(=O)O (H-GSNFTS[NMeT]TVKA-OH) | 249% | 197%
CC(C)[C@H](NC(=O)[C@@H](NC(=O)[C@@H](NC(=O)[C@H](CO)NC(=O)[C@H](C)NC(=O)[C@H](Cc1ccccc1)NC(=O)[C@H](CC(N)=O)NC(=O)[C@H](CO)NC(=O)CN)[C@@H](C)O)[C@@H](C)O)C(=O)N[C@@H](CCCCN)C(=O)N[C@@H](C)C(=O)O (H-GSNFASTTVKA-OH) | 228% | 120%
CC(C)[C@@H](NC(=O)[C@@H](NC(=O)[C@@H](NC(=O)[C@H](CO)NC(=O)[C@@H](NC(=O)[C@H](Cc1ccccc1)NC(=O)[C@H](CC(N)=O)NC(=O)[C@H](CO)NC(=O)CN)[C@@H](C)O)[C@@H](C)O)[C@@H](C)O)C(=O)N[C@@H](CCCCN)C(=O)N[C@@H](C)C(=O)O | 97% | 107%

From ChEMBL document CHEMBL3217454, “Structureactivity relationship studies using peptide arrays: the example of HIV-1 Revintegrase interaction” (Medchemcomm, 2013)
